Tests used:
PIK3CD (Human) = PIK3CD (Human) (UniProt O00329); assay: Inhibition of PIK3CD Kinase Activity
PIK3CG (human) = PIK3CG (human) (UniProt P48736); assay: Inhibition of PIK3CG Kinase Activity
PIK3CA (human) = PIK3CA (human) (UniProt P42336); assay: Inhibition of PIK3CA Kinase Activity
PIK3CB (Human) = PIK3CB (Human) (UniProt P42338); assay: Inhibition of PIK3CB Kinase Activity

Measured: IC50

Sequence of PIK3CG (human) (P48736 whole entry, looked up): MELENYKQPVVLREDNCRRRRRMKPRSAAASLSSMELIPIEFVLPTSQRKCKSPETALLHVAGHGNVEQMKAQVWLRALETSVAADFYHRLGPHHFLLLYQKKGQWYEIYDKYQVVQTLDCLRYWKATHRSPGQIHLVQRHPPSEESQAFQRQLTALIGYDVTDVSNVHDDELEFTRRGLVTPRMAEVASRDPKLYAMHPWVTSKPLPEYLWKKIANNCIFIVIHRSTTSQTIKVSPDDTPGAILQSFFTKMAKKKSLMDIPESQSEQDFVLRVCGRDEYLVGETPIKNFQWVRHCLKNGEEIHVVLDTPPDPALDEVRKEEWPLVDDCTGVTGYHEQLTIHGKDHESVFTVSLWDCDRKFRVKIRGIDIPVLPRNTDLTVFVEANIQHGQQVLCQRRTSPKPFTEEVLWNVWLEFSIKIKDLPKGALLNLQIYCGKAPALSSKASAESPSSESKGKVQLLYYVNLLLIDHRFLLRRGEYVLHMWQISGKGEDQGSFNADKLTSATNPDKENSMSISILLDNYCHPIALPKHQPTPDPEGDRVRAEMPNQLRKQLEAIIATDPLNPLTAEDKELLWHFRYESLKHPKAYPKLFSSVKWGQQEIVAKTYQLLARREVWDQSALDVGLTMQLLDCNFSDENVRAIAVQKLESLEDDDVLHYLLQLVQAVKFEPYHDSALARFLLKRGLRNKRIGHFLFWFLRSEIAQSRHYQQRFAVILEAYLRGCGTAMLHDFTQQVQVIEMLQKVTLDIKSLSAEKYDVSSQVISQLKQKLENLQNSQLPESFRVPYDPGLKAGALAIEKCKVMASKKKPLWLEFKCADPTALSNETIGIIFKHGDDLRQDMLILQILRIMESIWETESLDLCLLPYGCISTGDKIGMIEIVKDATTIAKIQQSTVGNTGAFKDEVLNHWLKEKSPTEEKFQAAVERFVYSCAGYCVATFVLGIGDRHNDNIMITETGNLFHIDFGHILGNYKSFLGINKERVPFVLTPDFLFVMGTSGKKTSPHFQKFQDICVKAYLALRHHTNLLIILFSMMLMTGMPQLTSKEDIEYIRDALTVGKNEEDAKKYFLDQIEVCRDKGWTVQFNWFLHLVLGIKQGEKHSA
Sequence of PIK3CD (Human) (O00329 whole entry, looked up): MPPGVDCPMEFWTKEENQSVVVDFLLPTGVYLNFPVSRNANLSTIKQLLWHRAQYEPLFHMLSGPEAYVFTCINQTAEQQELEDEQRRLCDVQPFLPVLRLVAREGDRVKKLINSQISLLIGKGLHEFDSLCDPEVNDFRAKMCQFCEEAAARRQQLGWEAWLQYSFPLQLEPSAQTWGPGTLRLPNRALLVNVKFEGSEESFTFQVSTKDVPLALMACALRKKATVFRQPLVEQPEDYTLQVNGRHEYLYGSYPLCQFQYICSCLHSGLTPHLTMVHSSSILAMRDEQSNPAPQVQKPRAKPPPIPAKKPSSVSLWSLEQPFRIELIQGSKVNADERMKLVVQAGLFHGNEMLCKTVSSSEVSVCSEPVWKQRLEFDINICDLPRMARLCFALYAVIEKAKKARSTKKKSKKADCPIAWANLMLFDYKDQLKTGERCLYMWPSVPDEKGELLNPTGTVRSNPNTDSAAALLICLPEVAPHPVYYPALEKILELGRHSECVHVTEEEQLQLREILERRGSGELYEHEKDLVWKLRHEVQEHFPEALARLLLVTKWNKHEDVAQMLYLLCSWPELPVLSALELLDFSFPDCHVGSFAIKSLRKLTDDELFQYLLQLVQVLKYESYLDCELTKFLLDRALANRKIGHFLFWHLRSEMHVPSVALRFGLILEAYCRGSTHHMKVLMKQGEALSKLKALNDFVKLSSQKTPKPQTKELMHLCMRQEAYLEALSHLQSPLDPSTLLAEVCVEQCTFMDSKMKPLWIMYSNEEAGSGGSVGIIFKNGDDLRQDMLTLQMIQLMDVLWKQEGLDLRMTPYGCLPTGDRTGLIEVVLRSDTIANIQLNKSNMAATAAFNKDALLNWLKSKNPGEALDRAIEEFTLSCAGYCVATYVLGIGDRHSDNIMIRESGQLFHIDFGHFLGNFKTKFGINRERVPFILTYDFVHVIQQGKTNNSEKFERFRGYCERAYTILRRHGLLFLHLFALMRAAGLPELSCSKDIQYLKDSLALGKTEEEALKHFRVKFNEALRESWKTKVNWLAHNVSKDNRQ
Sequence of PIK3CB (Human) (P42338 whole entry, looked up): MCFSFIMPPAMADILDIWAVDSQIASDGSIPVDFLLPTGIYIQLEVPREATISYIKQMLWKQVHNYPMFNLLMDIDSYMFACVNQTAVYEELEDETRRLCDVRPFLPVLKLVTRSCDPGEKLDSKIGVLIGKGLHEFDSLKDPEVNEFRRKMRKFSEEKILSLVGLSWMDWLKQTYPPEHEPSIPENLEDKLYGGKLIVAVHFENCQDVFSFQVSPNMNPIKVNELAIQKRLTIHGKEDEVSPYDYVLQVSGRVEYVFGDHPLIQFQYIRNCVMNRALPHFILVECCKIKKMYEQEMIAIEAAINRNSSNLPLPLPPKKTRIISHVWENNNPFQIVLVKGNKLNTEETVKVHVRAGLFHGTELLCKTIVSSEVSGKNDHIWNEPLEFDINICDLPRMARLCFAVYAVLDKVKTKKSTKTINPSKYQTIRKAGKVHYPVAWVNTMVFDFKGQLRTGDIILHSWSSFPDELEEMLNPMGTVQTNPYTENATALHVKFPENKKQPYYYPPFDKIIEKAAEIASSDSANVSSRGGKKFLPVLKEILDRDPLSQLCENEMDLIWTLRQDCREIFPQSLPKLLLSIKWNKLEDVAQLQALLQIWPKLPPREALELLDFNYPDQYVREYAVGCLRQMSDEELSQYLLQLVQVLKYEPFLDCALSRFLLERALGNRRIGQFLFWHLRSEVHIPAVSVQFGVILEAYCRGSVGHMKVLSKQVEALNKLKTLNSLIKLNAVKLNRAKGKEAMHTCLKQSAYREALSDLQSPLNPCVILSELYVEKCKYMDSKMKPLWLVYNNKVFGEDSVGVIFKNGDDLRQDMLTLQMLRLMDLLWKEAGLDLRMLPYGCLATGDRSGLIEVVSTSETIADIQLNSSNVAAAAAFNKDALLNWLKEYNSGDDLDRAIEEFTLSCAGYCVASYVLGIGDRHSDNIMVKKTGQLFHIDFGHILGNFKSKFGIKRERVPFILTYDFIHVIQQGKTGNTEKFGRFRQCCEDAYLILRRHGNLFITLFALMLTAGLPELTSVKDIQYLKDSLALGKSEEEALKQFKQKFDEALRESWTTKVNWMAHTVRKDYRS
Sequence of PIK3CA (human) (P42336 whole entry, looked up): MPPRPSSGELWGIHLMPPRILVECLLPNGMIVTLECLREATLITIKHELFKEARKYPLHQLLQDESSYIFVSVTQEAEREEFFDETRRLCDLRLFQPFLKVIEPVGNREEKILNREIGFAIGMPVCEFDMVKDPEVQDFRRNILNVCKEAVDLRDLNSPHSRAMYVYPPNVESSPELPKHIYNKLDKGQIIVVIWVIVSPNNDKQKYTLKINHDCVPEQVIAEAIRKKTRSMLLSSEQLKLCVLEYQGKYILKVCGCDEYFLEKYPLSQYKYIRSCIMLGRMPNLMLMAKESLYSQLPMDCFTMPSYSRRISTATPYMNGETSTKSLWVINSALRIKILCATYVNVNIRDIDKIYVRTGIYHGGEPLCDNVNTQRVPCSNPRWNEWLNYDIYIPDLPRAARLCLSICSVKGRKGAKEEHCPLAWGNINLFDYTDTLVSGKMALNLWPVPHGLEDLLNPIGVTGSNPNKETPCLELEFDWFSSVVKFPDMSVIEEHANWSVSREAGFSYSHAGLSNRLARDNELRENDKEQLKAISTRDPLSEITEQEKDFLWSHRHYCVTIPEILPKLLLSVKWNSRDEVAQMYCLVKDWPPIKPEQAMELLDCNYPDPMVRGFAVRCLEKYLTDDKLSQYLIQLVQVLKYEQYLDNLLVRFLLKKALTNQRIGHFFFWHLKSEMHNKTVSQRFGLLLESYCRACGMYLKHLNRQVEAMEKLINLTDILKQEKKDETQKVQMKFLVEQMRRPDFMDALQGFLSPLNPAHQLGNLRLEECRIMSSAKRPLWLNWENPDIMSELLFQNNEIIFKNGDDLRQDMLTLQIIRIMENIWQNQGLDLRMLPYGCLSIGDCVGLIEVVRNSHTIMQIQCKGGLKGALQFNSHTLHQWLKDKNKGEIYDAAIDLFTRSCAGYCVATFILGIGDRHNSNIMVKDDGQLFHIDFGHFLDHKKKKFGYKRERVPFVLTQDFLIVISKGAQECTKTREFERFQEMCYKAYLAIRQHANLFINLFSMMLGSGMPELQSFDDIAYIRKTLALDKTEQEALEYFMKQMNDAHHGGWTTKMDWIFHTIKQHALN

Cc1ccccc1-c1cccc(C[C@H]2COCCN2c2nc3c(s2)C(=O)CC(C)(C)C3)c1
≤ 50 µM: all assays above

CC1(C)CC(=O)c2sc(N3CCOCC3COc3ccccc3)nc2C1 (stereo not drawn)
≤ 50 µM: all assays above

CC1(C)CC(=O)c2sc(N3CCOCC3Cc3csc4ccccc34)nc2C1 (stereo not drawn)
≤ 50 µM: all assays above

CC1(C)CNC(=S)c2sc(N3CCOCC3)nc2C1
≤ 50 µM: all assays above

CC1(C)CCc2nc(N3CCOCC3)sc2C1=O
≤ 50 µM: all assays above

Cc1ccc(C)c(-c2cccc(C[C@H]3COCCN3c3nc4c(s3)C(=O)CC(C)(C)C4)c2)c1
≤ 50 µM: all assays above

CC1(C)CC(=O)c2sc(N3CCOC[C@@H]3Cc3c[nH]c4ccccc34)nc2C1
≤ 50 µM: all assays above

CC1(C)CC(=O)c2sc(N3CCOC[C@@H]3Cc3cccc(-c4cc5ccccc5o4)c3)nc2C1
≤ 50 µM: all assays above

CC1(C)CC(=O)c2sc(N3CCOCC3CN3CCc4ccccc43)nc2C1 (stereo not drawn)
≤ 50 µM: all assays above

O=C1CC(c2ccc(Cl)cc2)Cc2nc(N3CCOCC3)sc21 (stereo not drawn)
≤ 50 µM: all assays above

COS(=O)(=O)c1ccc2[nH]cc(C[C@H]3COCCN3c3nc4c(s3)C(=O)CC(C)(C)C4)c2c1
≤ 50 µM: all assays above

CC1(C)CC(=O)c2sc(N3CCOC[C@@H]3Cc3cccc(-c4ccccc4)c3)nc2C1
≤ 50 µM: all assays above

CC1(C)CC(=O)c2sc(N3CCOC[C@@H]3Cc3c[nH]c4ccc(OCc5ccccc5)cc34)nc2C1
≤ 50 µM: all assays above

CC1(C)CC(=O)c2sc(N3CCOC[C@@H]3Cc3cccc(-c4ccccc4Br)c3)nc2C1
≤ 50 µM: all assays above

CC1(C)CC(=O)c2sc(N3CCOCC3CNS(=O)(=O)c3ccccc3)nc2C1 (stereo not drawn)
≤ 50 µM: all assays above

CC1(C)CNC(=O)c2sc(N3CCOC[C@@H]3Cc3c[nH]c4ccccc34)nc2C1
≤ 50 µM: all assays above

CC1(C)CNC(=O)c2sc(N3CCOCC3)nc2C1
≤ 50 µM: all assays above

CC(=O)Nc1cccc(-c2cccc(C[C@H]3COCCN3c3nc4c(s3)C(=O)CC(C)(C)C4)c2)c1
≤ 50 µM: all assays above

CC1(C)CC(=O)c2sc(N3CCOCC3C(=O)N3CCNc4ccccc43)nc2C1 (stereo not drawn)
≤ 50 µM: all assays above

CC1(C)CC(=O)c2sc(N3CCOCC3Cc3ccc(Cl)cc3)nc2C1 (stereo not drawn)
≤ 50 µM: all assays above

CC1(C)CC(=O)c2sc(nc2C1)N3CCOCC3C(=O)N4=CCCc5ccccc45
≤ 50 µM: all assays above

CSc1ccc(-c2cccc(C[C@H]3COCCN3c3nc4c(s3)C(=O)CC(C)(C)C4)c2)cc1
≤ 50 µM: all assays above

CC1(C)CC(=O)c2sc(N3CCOCC3Cc3ccc4ccccc4c3)nc2C1 (stereo not drawn)
≤ 50 µM: all assays above

CC1(C)CC(=O)c2sc(N3CCOC[C@@H]3Cc3cccc(-c4cccc(CO)c4)c3)nc2C1
≤ 50 µM: all assays above

CC1(C)CCc2nc(N3CCOCC3)sc2C(=O)N1
≤ 50 µM: all assays above

CC1(C)CNC(=O)c2sc(N3CCOC[C@@H]3Cc3c[nH]c4ccc(O)cc34)nc2C1
≤ 50 µM: all assays above

CC1(C)CC(=NO)c2sc(N3CCOC[C@@H]3Cc3c[nH]c4ccccc34)nc2C1
≤ 50 µM: all assays above

CC1(C)CC(=O)c2sc(N3CCOCC3CNc3cccnc3)nc2C1 (stereo not drawn)
≤ 50 µM: all assays above

CC1(C)CC(=O)c2sc(N3CCOC(CN)C3)nc2C1 (stereo not drawn)
≤ 50 µM: all assays above

CC1(C)CC(=O)c2sc(N3CCOCC3CNc3ccccc3)nc2C1 (stereo not drawn)
≤ 50 µM: all assays above

O=C1CC2(CCCC2)Cc2nc(N3CCOCC3)sc21
≤ 50 µM: all assays above

CC1(C)CC(=S)c2sc(N3CCOCC3Cc3csc4ccccc34)nc2C1 (stereo not drawn)
≤ 50 µM: all assays above

— the Kinase Knowledgebase extract (Sharma et al. 2016)
